Experimental findings from patent US7871790B2 (priority 2004, dated 2011) are described below.

Residues, ends and D or L forms follow the SMILES beside them. *: point of attachment. Cbz = O=C(OCc1ccccc1)*; CH2F = FC*

Data set [1] relates to RAW 264.7 murine macrophage cell line. It counts as cell-based. Conditions: 24 h.
For data set [2], the target named is T1, ICE (caspase-1) (Mus musculus, UniProt P29452).
T1 sequence (P29452 119-296 limits assumed): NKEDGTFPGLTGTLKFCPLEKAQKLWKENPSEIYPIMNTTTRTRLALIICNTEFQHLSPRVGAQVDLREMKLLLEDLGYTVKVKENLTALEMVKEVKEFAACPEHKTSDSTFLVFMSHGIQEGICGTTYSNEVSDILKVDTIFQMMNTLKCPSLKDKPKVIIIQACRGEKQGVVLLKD
T1 sequence (P29452 315-402 limits assumed): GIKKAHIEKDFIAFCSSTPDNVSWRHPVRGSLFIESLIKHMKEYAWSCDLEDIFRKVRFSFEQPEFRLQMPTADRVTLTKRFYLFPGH

For lipopolysaccharide [LPS], in data set [1], the “Dose needed for induction of IL-1β comparable to that resulting from anthrax LT treatment” value is reported as at least 100 EU/ml and the “Induction of IL-18” value is “not induced”.
Turning to `COC(=O)CC[C@H](NC(=O)[C@H](Cc1c[nH]c2ccccc12)NC(=O)OCc1ccccc1)C(=O)N[C@@H](Cc1cnc[nH]1)C(=O)N[C@@H](CC(=O)OC)C(=O)CF` [Z-WEHD-FMK] (Cbz-WE(OMe)HD(OMe)-CH2F), in data set [2], the “Effect on cell viability” value is reported as “no observable effect”. In data set [2] (24 hours), the “Blocking of IL-1β production induced by anthrax LT” value is about 70% and the “Blocking of IL-18 production induced by anthrax LT” value is on record as about 70%.
